In US20040115245A1, “Autoinducer compounds and their uses” (priority 2001, published 2004):
Entries after “also recorded” stand apart in the source; their conditions may differ.

How the values were obtained:
cultures of rumen fluid = assay: In vitro digestion of grass silage by cultures of rumen fluid; assay type: cell-based, cow; conditions: OHHL 0, 200, 500 and 1000 nanomoles final in rumen fluid, 37° C., 10 hours, triplicate
Description: Autoinducer compounds such as acyl homoserine lactones can have significant effects on cultures of bacteria. For example, they may be used to induce expression of antibiotics and extracellular enzymes. […] is the signal molecule for antibiotic production in Chromobacterium violaceum; butanoyl homoserine lactone triggers various phenotypes in Pseudomonas aeruginosa including the production of various enzymes and lectins. OHHL is known to have different effects on different species. For example, in Erwinia stewartii it induces production of exopolysaccharides, while in Vibrio species it promotes bioluminescence. Thus, in a complex mixed culture comprising many species including ruminobacter sp., prevotella sp., ruminococcus sp., it is hard to predict the specific phenotypes that will be induced by even the introduction of just one autoinducer compound. However. the global effect on rumen mixed culture fermentation can be measured in terms of the efficiency of digestion of forage. […] A control sample treated with water and four test samples treated with using nanomolar concentrations of OHHL are examined.
Rumen fluid was collected from a healthy fistulated grass fed cow and immediately dispensed into 75 ml bottles. These bottles were kept at 37° C. […]

broiler chickens = assay: Growth performance and mortality of broiler chickens raised in floor pens; assay type: in vivo, broiler chickens (Cobb×Cobb); conditions: for Feed Conversion, Day 21-35: grower period; for Daily Feed intake, Day 0-21 / Daily Feed intake, Day 0-35 / Daily Feed intake, Day 21-35: per bird
Experimental: This experiment examined the effect of N-(3-oxohexanoyl)-L-homoserine lactone (OHHL) (CAS #: 143537626, molecular formula : C10H15NO4, molecular weight: 213) on the growth performance and mortality of broiler chickens.
A stock solution of 1 mM OHHL (0.213 g/L) was prepared as follows. Approximately 50% of the required volume of distilled water was warmed to approximately 30-40° C. and used to dissolve the required amount of OHHL powder. The solution was made up to volume using distilled water stored at room temperature. OHHL solution (0.213 g/L) was applied to treated crumbled feed at a rate of 3 kg per tonne. Control feed was treated with distilled water at a rate of 3 kg per tonne. The OHHL solution was stored for less than 2 days prior to application to feed.
The antibiotic BMD®110 was used as a positive control in this study. The active ingredient is bacitracin methylene disalicyclate. The product contains 110 g of bacitracin activity per kg and is approved for prevention of necrotic enteritis in broiler chickens when given at a dose of 55 ppm in feed (500 g BMD®110/tonne feed).
Coxistac® 6% premix was used as an ionophore in all study diets as an aid in the prevention of coccidiosis. The product contained 60 g salinomycin per kg and was administered at a dose of 60 ppm in feed (1 kg Coxistac® 6% premix per tonne feed).
The experiment lasted 35 days with the day of placement of broiler chicks considered as day zero. A total of 1,200 male day-old broiler chickens (Cobb×Cobb) were assigned to treatment on day 0. Birds were vaccinated for Marek's disease at the hatchery. Twenty-four pens, each providing 45 square feet of floor space, were assigned to treatment groups. […] Adjacent pens were separated by a solid 12-inch high plastic barrier at bird level. A welded wire fence with 1-inch square openings was located on top of all barriers. Each pen was permanently identified by number and contained 50 birds on day zero. Each pen contained four nipple-type drinkers which provided clean drinking water ad libitum. Dry feed was provided ad libitum in tube-type feeders (one per pen) of 20 kg capacity.
The barn was heated by five natural gas heaters which were equally spaced and positioned to warm incoming air at the north wall of the building. Air was exhausted by fans located on the south-facing wall of the building. Lighting program, barn temperature, and other management practices were typical of commercial broiler chicken producers in North America. Birds that were moribund and unable to reach food or water were culled and euthanised by carbon dioxide gas.
Bodyweight, pen number and date of death were recorded for each bird that was culled or found dead. Mortalities were submitted to the pathologist to determine the apparent cause of death.
A randomised complete block design was used to study the main and interactive-effects of OHHL (0 and 0.639 g/tonne) and dietary antibiotic ([…]) in a 2×2 factorial arrangement. Dietary treatments were as follows:
There were four pens per block and six replicate blocks for a total of 24 pens.
The feeding program was used in the study used a starter feed type on days 0 to 20 and a grower feed type on days 21 to 35. Diet formulation was representative of commercial diets in North America.
A starter diets using a basal mix of starter diet containing either 0 or 55 ppm BMD was manufactured, pelleted, and crumbled. Bagged starter feed was treated with either distilled water (0 g OHHL per L) or OHHL solution (0.213 g OHHL per L) using a horizontal double ribbon mixer of 100 kg capacity. Distilled water or OHHL solution (0.213 g per L) were applied to crumbled feed at a rate of 3 kg per tonne feed. Grower diets were manufactured as described above for starters.
The data collected consisted of:
1. Bodyweight on days 0, 21, and 35.
2. Amounts of each feed (starter and grower) consumed.
3. Bodyweight and date of death for birds which were culled or died.
4. […]

sheep = assay: Rumen dry matter disappearance of corn silage in cannulated sheep (in situ bags); assay type: in vivo; parameters: dry matter disappearance, OHHL − Control, Mean / dry matter disappearance, OHHL − Control, 4 Hours / dry matter disappearance, OHHL − Control, 8 Hours / dry matter disappearance, OHHL − Control, 12 Hours / dry matter disappearance, OHHL − Control, 24 Hours: concentration or dose not given beside the values
Experimental: This experiment examined the effect of N-(3-oxohexanoyl)-L-homoserine lactone (OHHL) (CAS#: 143537626, molecular formula : C10H15NO4, molecular weight: 213) on rumen dry matter disappearance in vivo in sheep.
A stock solution of OHHL (0.639 gram/L) was prepared as follows. Approximately 50% of the required volume of distilled water was warmed to approximately 30-40° C. and used to dissolve the required amount of OHHL powder. The volumetric flask was made up to volume using distilled water stored at room temperature. OHHL solution was applied to pelleted sheep ration at a rate of 3 kg per tonne of feed. Control feed was treated with 3 kg of distilled water per tonne.
Initial attempts to administer OHHL by application of an aqueous solution to the outside of pelleted feed were modified as the sheep decreased intake of treated feed after a few days. Instead, OHHL was administered as an oral drench twice daily commencing on the afternoon of Day 11 of each period.
A restricted quantity of pelleted ration was provided at a rate of approximately 0.5 kg/day (0.25 kg in the a.m. and 0.25 kg in the p.m.). Access to hay was restricted as needed to help ensure that sheep ration was consumed.
On Days 12 and 13, pelleted ration (0.25 kg/animal) was issued to animals approximately 1 hour prior to introduction of bags into the rumen and again following removal of the 8-hour bag from each animal.
One fresh sample of corn silage was dried to constant weight and allowed to cool to room temperature. A representative sub-sample was taken for dry matter determination. The sample was ground to pass a 1 mm screen, mixed and sampled for dry matter assay. The remaining sample was stored for in situ determination of dry matter disappearance from the rumen of cannulated sheep.
Ankom rumen sampling bags were used in the study. Each bag was approximately 5 cm×10 cm, suitable for a one-gram sample. Pore size was 53±10 microns. Dried, ground corn silage was weighed (1.00±0.01 grams) into bags and sealed. A set of four bags was prepared per animal per day and these were attached to a string to facilitate placement in and removal from the rumen. A fifth bag served as a blank for each set of four bags. The blank was not placed in the rumen but was washed, processed and dried.
A rumen cannula was surgically placed in each of five mature (approximately 3-year old) ewes. Following recovery from surgery, four of these animals were selected for use in the study. The fifth animal served as a reserve for use in the event of post-surgical complications in a study animal.
Dry matter disappearance was measured by removing bags from the rumen at 4, 8, 12 and 24 hours and washed under cold running tap water together with a corresponding blank bag. Bags were then dried to constant weight. Measurement of dry matter disappearance was completed for each animal commencing on the morning of Day 12 and Day 13 of each period.
A Latin Square Design was used to study the effects of two treatments:
A, Control: 0 gram OHHL per tonne ration.
B: Treated with the equivalent of 1.917 gram OHHL per tonne ration.
Each period was of 14 days duration. A total of four study animals were blocked based on bodyweight (2 blocks). Animals within block were randomly assigned to Sequence 1 or 2:
Data were analysed by a multiple regression analysis that included effects of treatment, animal, period, study day and hour.

[1] = individual treatment mean (2×2 factorial cell)
[2] = individual treatment mean (2×2 factorial cell), OHHL 0.639 g/tonne feed, BMD 110 500 g/tonne
[3] = main-effect mean pooled over the other factor

CCCC(=O)CC(=O)N[C@H]1CCOC1=O [OHHL, N-(3-oxohexanoyl)-L-homoserine lactone]
mean percentage loss of weight of grass silage (cultures of rumen fluid): increased the mean percentage loss of weight
adverse effects on bird health / survival (broiler chickens; continuous administration in feed for 35 days, necropsy of all mortalities): no evidence of any adverse effect; also recorded: did not have an adverse effect on bird survival
Mortality, Day 0-21 (broiler chickens; [1]): 1.0%
Mortality, Day 0-35 (broiler chickens; [1]): 1.7%
Mortality, Day 21-35 (broiler chickens; [1]): 0.7%
Average bodyweight, Day 21 (broiler chickens; [2]): 0.796 kg
Average bodyweight, Day 35 (broiler chickens; [2]): 1.934 kg
Feed Conversion, Day 21-35 (broiler chickens; [1]): 1.812
Feed Conversion, Day 0-35 (broiler chickens; individual treatment mean (2×2 factorial cell), overall period): 1.629
Daily Feed intake, Day 0-21 (broiler chickens; [1]): 0.049
Daily Feed intake, Day 0-35 (broiler chickens; [1]): 0.088
Daily Feed intake, Day 21-35 (broiler chickens; [1]): 0.147
Feed Conversion, Day 0-21 (broiler chickens; individual treatment mean (2×2 factorial cell), starter period): 1.357
Mortality, Day 0-21 (broiler chickens; [3]): 1.3%
Mortality, Day 0-35 (broiler chickens; [3]): 2.2%
Mortality, Day 21-35 (broiler chickens; [3]): 0.8%
Average bodyweight, Day 35 (broiler chickens; main-effect mean pooled over the other factor, OHHL 0.639 g/tonne feed, BMD 110 500 g/tonne): 1.937 kg
Feed Conversion, Day 21-35 (broiler chickens; [3]): 1.794
Daily Feed intake, Day 0-21 (broiler chickens; [3]): 0.048
Daily Feed intake, Day 0-35 (broiler chickens; [3]): 0.087
Daily Feed intake, Day 21-35 (broiler chickens; [3]): 0.147
dry matter disappearance, 4 Hours (sheep; corn silage in rumen bags, 4 h incubation, OHHL equivalent to 1.917 gram per tonne ration, oral drench twice daily): 53.0%
dry matter disappearance, 8 Hours (sheep; corn silage in rumen bags, 8 h incubation, OHHL equivalent to 1.917 gram per tonne ration): 57.8%
dry matter disappearance, 12 Hours (sheep; corn silage in rumen bags, 12 h incubation, OHHL equivalent to 1.917 gram per tonne ration): 65.7%
dry matter disappearance, 24 Hours (sheep; corn silage in rumen bags, 24 h incubation, OHHL equivalent to 1.917 gram per tonne ration): 74.5%
dry matter disappearance, OHHL − Control, 4 Hours (sheep; difference to control, 4 h): 4.16%
dry matter disappearance, OHHL − Control, 8 Hours (sheep; difference to control, 8 h): −0.60%
dry matter disappearance, OHHL − Control, 12 Hours (sheep; difference to control, 12 h): 3.36%
dry matter disappearance, OHHL − Control, 24 Hours (sheep; difference to control, 24 h): 0.15%
dry matter disappearance, OHHL − Control, Mean (sheep; difference to control, mean of all times (percentage units; P=0.105)): 1.77%
dry matter disappearance, Mean (sheep; mean over 4, 8, 12, 24 h): 62.7%
